Data: US4542137A, “Alkylaminodesoxy-1.4;3.6-dianhydrohexitol nitrates substituted by purine bases and pharmaceutical compositions” (priority 1980, dated 1985)
Where two headings read alike, the source gives them in different places.

Legend:
mongrel cats [1] = assay: inotropic and frequency-lowering heart circulation effectiveness on mongrel cats, intravenous; assay type: in vivo; design: heart frequency previously / dp/dt previously / dp/dt afterwards: unit not given beside the values; details: cat; for blood pressure afterwards / dp/dt afterwards / heart frequency afterwards: after; for blood pressure previously / dp/dt previously / heart frequency previously: before; for blood pressure Δ / dp/dt Δ / heart frequency Δ: change
Method: (§1) The animals were narcotised with a mixture of chloralose-urethane (1.2 g./kg. urethane+40 mg./kg. chloralose administered i.p.). They breathed spontaneously through a tracheal canula. The A. carotis sinistra was used in order to place a catheter tip manometer into the left heart chamber. The V. jugularis served for injection purposes. Via the A. femoralis dextra, a catheter was pushed in up to the Aorta descendans and attached to a pressure recorder (Statham P 23 Db). The heart frequency was recorded with a pulse frequency measurer (Firm Hugo Sachs Elektronik) from the left ventricular pressure signal.

mongrel cats [2] = assay: inotropic and frequency-lowering heart circulation effectiveness on mongrel cats, intraduodenal; assay type: in vivo; details: cat, 5 mg/kg intraduodenal
Method: as §1, with “A. femoralis,” for “A. femoralis dextra,”, “pushed” for “pushed in”, “up into” for “up to”, “measurer (firm” for “measurer (Firm”, “signal. A duodenal loop was exposed by a laparotomy. The substances to be tested were injected directly into the lumen.” for “signal.”

[3] = acute toxicity in mice according to the method of Lichtfield and Wilcoxon; details: mouse, in vivo
Method: As to example 1d, the following values for acute toxicity were determined with a greater number of mice, according to the method of Lichtfield and Wilcoxon: […]

guinea pigs = assay: blood pressure-lowering effectiveness on narcotised guinea pigs, i.v.; details: for blood pressure afterwards: after; for blood pressure previously: before; for blood pressure Δ: change

Which results are given for Cn1c(=O)c2c(ncn2CCCN[C@H]2CO[C@H]3[C@@H]2OC[C@@H]3O[N+](=O)[O-])n(C)c1=O [Example 1d, 5-(3-Theophyllin-7-ylpropyl)-amino-5-desoxy-1.4;3.6-dianhydro-L-iditol 2-nitrate]?
blood pressure WD (mongrel cats [1]; 0.25 mg/kg i.v.): 27.71 min; dp/dt WD (mongrel cats [1]; 0.25 mg/kg i.v.): 15.57 min; blood pressure afterwards (mongrel cats [1]; 0.25 mg/kg i.v.): 64.86; dp/dt afterwards (mongrel cats [1]; 0.25 mg/kg i.v.): 6086; heart frequency afterwards (mongrel cats [1]; 0.25 mg/kg i.v.): 184.57; blood pressure previously (mongrel cats [1]; 0.25 mg/kg i.v.): 103.00; dp/dt previously (mongrel cats [1]; 0.25 mg/kg i.v.): 7371; heart frequency previously (mongrel cats [1]; 0.25 mg/kg i.v.): 180.86; blood pressure Δ (mongrel cats [1]; 0.25 mg/kg i.v.): -38.14; dp/dt Δ (mongrel cats [1]; 0.25 mg/kg i.v.): -1285; heart frequency Δ (mongrel cats [1]; 0.25 mg/kg i.v.): +3.71; blood pressure WD (mongrel cats [1]; 0.50 mg/kg i.v.): 20.21 min; dp/dt WD (mongrel cats [1]; 0.50 mg/kg i.v.): 24.57 min; blood pressure afterwards (mongrel cats [1]; 0.50 mg/kg i.v.): 61.57; dp/dt afterwards (mongrel cats [1]; 0.50 mg/kg i.v.): 5300; heart frequency afterwards (mongrel cats [1]; 0.50 mg/kg i.v.): 182.29; blood pressure previously (mongrel cats [1]; 0.50 mg/kg i.v.): 101.86; dp/dt previously (mongrel cats [1]; 0.50 mg/kg i.v.): 6614; heart frequency previously (mongrel cats [1]; 0.50 mg/kg i.v.): 178.29; blood pressure Δ (mongrel cats [1]; 0.50 mg/kg i.v.): -40.29; dp/dt Δ (mongrel cats [1]; 0.50 mg/kg i.v.): -1314; heart frequency Δ (mongrel cats [1]; 0.50 mg/kg i.v.): +4.00; blood pressure WD (mongrel cats [1]; 1.00 mg/kg i.v.): 24.29 min; dp/dt WD (mongrel cats [1]; 1.00 mg/kg i.v.): 19.58 min; blood pressure afterwards (mongrel cats [1]; 1.00 mg/kg i.v.): 59.86; dp/dt afterwards (mongrel cats [1]; 1.00 mg/kg i.v.): 5186; heart frequency afterwards (mongrel cats [1]; 1.00 mg/kg i.v.): 182.00; blood pressure previously (mongrel cats [1]; 1.00 mg/kg i.v.): 103.43; dp/dt previously (mongrel cats [1]; 1.00 mg/kg i.v.): 5957; heart frequency previously (mongrel cats [1]; 1.00 mg/kg i.v.): 174.00; blood pressure Δ (mongrel cats [1]; 1.00 mg/kg i.v.): -43.57; dp/dt Δ (mongrel cats [1]; 1.00 mg/kg i.v.): -771; heart frequency Δ (mongrel cats [1]; 1.00 mg/kg i.v.): +8.00; blood pressure WD (mongrel cats [1]; 2.50 mg/kg i.v.): > 10 min; dp/dt WD (mongrel cats [1]; 2.50 mg/kg i.v.): 6.42 min; blood pressure afterwards (mongrel cats [1]; 2.50 mg/kg i.v.): 63.88; dp/dt afterwards (mongrel cats [1]; 2.50 mg/kg i.v.): 6550; heart frequency afterwards (mongrel cats [1]; 2.50 mg/kg i.v.): 180.33; blood pressure previously (mongrel cats [1]; 2.50 mg/kg i.v.): 107.50; dp/dt previously (mongrel cats [1]; 2.50 mg/kg i.v.): 6383; heart frequency previously (mongrel cats [1]; 2.50 mg/kg i.v.): 169.67; blood pressure Δ (mongrel cats [1]; 2.50 mg/kg i.v.): -43.62; dp/dt Δ (mongrel cats [1]; 2.50 mg/kg i.v.): +167; heart frequency Δ (mongrel cats [1]; 2.50 mg/kg i.v.): +10.66; blood pressure (mongrel cats [2]; 0 min): 115.4 ± 14.4 mm. Hg; dp/dt (mongrel cats [2]; 0 min): 6000 ± 1367 mm sec.; frequency (mongrel cats [2]; 0 min): 173.2 ± 14.5 min⁻¹; blood pressure (mongrel cats [2]; 10 min): 86.0 ± 13.8 mm. Hg; dp/dt (mongrel cats [2]; 10 min): 4880 ± 1371 mm sec.; frequency (mongrel cats [2]; 10 min): 173.6 ± 14.8 min⁻¹; blood pressure Δ (mongrel cats [2]; 10 min vs 0): -29.4 mm. Hg; dp/dt Δ (mongrel cats [2]; 10 min vs 0): -1120 mm sec.; blood pressure (mongrel cats [2]; 30 min): 88.6 ± 14.8 mm. Hg; dp/dt (mongrel cats [2]; 30 min): 4500 ± 1312 mm sec.; frequency (mongrel cats [2]; 30 min): 166.0 ± 15.6 min⁻¹; blood pressure Δ (mongrel cats [2]; 30 min vs 0): -26.8 mm. Hg; dp/dt Δ (mongrel cats [2]; 30 min vs 0): -1440 mm sec.; blood pressure (mongrel cats [2]; 60 min): 95.0 ± 14.4 mm. Hg; dp/dt (mongrel cats [2]; 60 min): 5020 ± 1330 mm sec.; frequency (mongrel cats [2]; 60 min): 168.4 ± 14.0 min⁻¹; blood pressure Δ (mongrel cats [2]; 60 min vs 0): -20.4 mm. Hg; dp/dt Δ (mongrel cats [2]; 60 min vs 0): -980 mm sec.; blood pressure (mongrel cats [2]; 120 min): 99.4 ± 13.2 mm. Hg; dp/dt (mongrel cats [2]; 120 min): 5100 ± 1341 mm sec.; frequency (mongrel cats [2]; 120 min): 164.8 ± 13.2 min⁻¹; blood pressure Δ (mongrel cats [2]; 120 min vs 0): -16.0 mm. Hg; dp/dt Δ (mongrel cats [2]; 120 min vs 0): -900 mm sec.; LD50 ([3]; ip, printed range (678.6-851.2), read-out: LD50 i.p.): 760 mg/kg; LD50 ([3]; iv, printed range (190.4-251.9), read-out: LD50 i.v.): 219 mg/kg; LD50 ([3]; po, read-out: LD50 p.o.): 1600 mg/kg; blood pressure afterwards (guinea pigs; 0.25 mg/kg i.v.): 49.75 ± 2.78 mm. Hg; blood pressure previously (guinea pigs; 0.25 mg/kg i.v.): 67.75 ± 3.27 mm. Hg; blood pressure Δ (guinea pigs; 0.25 mg/kg i.v.): -18.00 mm. Hg; blood pressure afterwards (guinea pigs; 1.00 mg/kg i.v.): 40.00 ± 2.12 mm. Hg; blood pressure previously (guinea pigs; 1.00 mg/kg i.v.): 68.00 ± 3.85 mm. Hg; blood pressure Δ (guinea pigs; 1.00 mg/kg i.v.): -28.00 mm. Hg; blood pressure afterwards (guinea pigs; 2.50 mg/kg i.v.): 37.50 ± 1.76 mm. Hg; blood pressure previously (guinea pigs; 2.50 mg/kg i.v.): 66.25 ± 2.66 mm. Hg; blood pressure Δ (guinea pigs; 2.50 mg/kg i.v.): -28.75 mm. Hg; blood pressure-lowering effectiveness compared with ISMN or ISDN (guinea pigs; i.v., narcotised guinea pigs): more effective than ISMN or ISDN
